In paper PMC8748556, “CXCR4 peptide-based fluorescence endoscopy in a mouse model of Barrett’s esophagus” (EJNMMI Research, 2022):
Square brackets hold non-standard residues; d marks the D form. Side chains are listed from the residue outwards. Peptide text beside a SMILES is read from it. * marks the point of attachment. X1 = C[N+]1=C(C=CC=CC=C2N(CCCCCC(=O)*)c3ccc(S(=O)(=O)O)cc3C2(C)C)C(C)(C)c2cc(S(=O)(=O)[O-])ccc21; dTyr(3-I) = N[C@H](Cc1ccc(O)c(I)c1)C(=O)O; 2Nal = N[C@@H](Cc1ccc2ccccc2c1)C(=O)O; dNMeOrn = CN[C@H](CCCN)C(=O)O; 4Abz = Nc1ccc(C(=O)O)cc1; dDap = NC[C@@H](N)C(=O)O

Key:
[1] = assay type: physicochemical; settings: pH 7.4
Protocol: Given promising data obtained with MK007 in our preclinical mouse model, we performed preliminary in vitro studies on human cell lines. Competition binding studies (IC50) were performed using Jurkat cells (4 × 10^5 cells/sample) and [^125I]FC131 as radioligand. […] To determine the log P of MK007, the corresponding non-iodinated precursor was radioiodinated using the Iodogen method, and the octanol/PBS partition coefficient of [^125I]MK007 was determined using a modified shake-flask-method.

[2] = test system: dysplastic lesions at the squamocolumnar junction of L2-IL1B mice; assay type: in vivo, mouse
Protocol: Five 12-to-16-month-old IL1B mice were intravenously injected into the tail vein with 60 nmol of MK007 diluted in 0.9% NaCl (tot. vol. 150 µL; 400 nmol/mL) and sacrificed 4 h post injection (p.i.) by isoflurane overdosage. One non-injected 12-month-old IL1B mouse served as negative control. The whole stomach and esophagus were then excised and imaged using a homemade ex vivo wide-field fluorescence imaging system. Briefly, the fluorescence images were acquired at different time exposure (0.2, 0.5, 1 and 2 s), using a 670 nm diode laser (B&W tek, Newark, DE, USA) and appropriate bandpass filter (780/10). A back illuminated EM-CCD camera (iXon DU888, Andor, Belfast, Northern Ireland, UK) was then used to capture the signal. The target-to-background ratio (TBR) of the stomach was performed by dividing the fluorescence signal in the squamocolumnar junction (SCJ) area (target lesion) with the adjacent normal gastric glandular tissue (background area) using ImageJ/Fiji software. In the organs, the signal quantification was performed by calculating the corrected total cell fluorescence/CTCF = integrated density – [(area * AVERAGE (mean background)]. For CTCF, three regions of interest (ROIs) without any tissue were used as background.

[3] = test system: dysplastic lesions of L2-IL1B mice; assay: Fluorescence molecular endoscopy; assay type: in vivo; settings: L2-IL1B mice 12-14 months, 60 nmol i.v., 4 h p.i.; lesion vs normal surrounding esophageal tissue; mean ± SEM, 3 mice, 2-5 lesions per mouse
Protocol: Three L2-IL1B mice (12–14 months old) were used for fluorescence molecular endoscopy before ex vivo imaging. Endoscopy was performed after sacrificing the mice at 4 h p.i. of MK007 using a homemade system previously developed by our group and optimized for small animal imaging. Briefly, the endoscopy system consisted of a flexible fiberscope (Micrendo-Fiberskop, SCHÖLLY FIBER OPTIC GMBH, Denzlingen, Germany) where both white light (provided by a 250-W halogen lamp, KL-2500 LCD, Schott AG, Mainz, Germany) and fluorescence (fiber coupled continuous wave (CW) laser diode emitting at 670 nm, SLD1332V, Thorlabs, Newton, NJ, USA) are coupled, allowing simultaneous color and near-infrared (NIR) fluorescence endoscopy. Videos in color and fluorescence channel were recorded using a custom-made endoscopy software and stored in AVI file format. Two NaCl-injected IL1B mice (17 and 12 months old) were used as negative controls for the validation of the endoscopy system. […] For quantification of Sulfo-Cy5 signal, single frames or frame sequences showing dysplastic lesions were used and the fluorescence signal from the target lesion and the background were quantified with ImageJ by handmade ROIs. […] The TBR was then calculated by dividing the mean fluorescence intensity from the lesion by the one from the background region.

C[C@@H](NC(=O)[C@@H](CCCNC(=N)N)NC(=O)[C@@H](CN)NC(=O)CCCCCN1C(=CC=CC=CC2=[N+](C)c3ccc(S(=O)(=O)[O-])cc3C2(C)C)C(C)(C)c2cc(S(=O)(=O)O)ccc21)C(=O)Nc1ccc(C(=O)NCCC[C@@H]2C(=O)N[C@@H](CCCNC(=N)N)C(=O)N[C@@H](Cc3ccc4ccccc4c3)C(=O)NCC(=O)N[C@H](Cc3ccc(O)c(I)c3)C(=O)N2C)cc1 [MK007] (cyclo([dTyr(3-I)][dNMeOrn]([4Abz-dA-dR-dDap-X1])R[2Nal]G))
log P [1]: − 1.83 ± 0.02
Target-to-background ratio (TBR), ex vivo wide-field imaging ([2]; L2-IL1B mice 12-16 months, 60 nmol i.v., 4 h p.i., SCJ vs adjacent normal gastric glandular tissue, mean ± SEM, n = 5): 2.45 ± 0.24
mean target-to-background ratio in dysplastic lesions (ex vivo imaging and endoscopy) ([2]; L2-IL1B mice, 4 h after injection, abstract statement covering ex vivo imaging and endoscopy): > 2
Target-to-background ratio (TBR), fluorescence endoscopy [3]: 2.13 ± 0.17
